# In ChEMBL document CHEMBL4513161, “CO-ADD screening of MMV (CH) - Pandemic Response Box” (2021):
# What was measured:
# Pseudomonas aeruginosa [1] = assay: Antibacterial activity against Pseudomonas aeruginosa PAO397 [PAO1 d(mexAB-oprM) d(mexCD-oprJ) d(mexEF-oprN) d(mexJKL) d(mexXY) d(opmH)] (CO-ADD:GN_211); MIC in CAMBH media using NBS plates, by OD(600); format: functional; details: ASSAY_TEST Inhibition of Bacterial Growth, detection method Absorption (OD600), MEDIA CAMHB, plate type 384well, CORNING #3640, time 18 hr
# Escherichia coli = assay: microbe, parasite or virus in culture; details: ATCC 25922, 18 h, ASSAY_TEST Inhibition of Bacterial Growth, detection method Absorption (OD600), MEDIA CAMHB, plate type 384well, NBS, CORNING #3640
# Description: Antibacterial activity against Escherichia coli ATCC 25922 (CO-ADD:GN_001); MIC in CAMBH media using NBS plates, by OD(600)
# Klebsiella pneumoniae = assay: microbe, parasite or virus in culture; details: ATCC 700603, 18 h, ASSAY_TEST Inhibition of Bacterial Growth, detection method Absorption (OD600), MEDIA CAMHB, plate type 384well, NBS, CORNING #3640
# Description: Antibacterial activity against Klebsiella pneumoniae MDR ATCC 70063 (CO-ADD:GN_003); MIC in CAMBH media using NBS plates, by OD(600)
# Candida albicans = assay: microbe, parasite or virus in culture; details: ATCC 90028, ASSAY_TEST Inhibition of Fungal Growth, detection method Absorption (OD530), plate type 384well, NBS, CORNING #3640
# Description: Antifungal activity against Candida albicans ATCC 90028 (CO-ADD:FG_001); MIC in YNB media using NBS plates, by OD630
# Staphylococcus aureus = assay: microbe, parasite or virus in culture; details: ATCC 43300, 18 h, ASSAY_TEST Inhibition of Bacterial Growth, detection method Absorption (OD600), MEDIA CAMHB, plate type 384well, NBS, CORNING #3640
# Description: Antibacterial activity against Staphylococcus aureus MRSA ATCC 43300 (CO-ADD:GP_020); MIC in CAMBH media, using NBS plates, by OD(600)
# Acinetobacter baumannii = assay: microbe, parasite or virus in culture; details: ATCC 19606, 18 h, ASSAY_TEST Inhibition of Bacterial Growth, detection method Absorption (OD600), MEDIA CAMHB, plate type 384well, NBS, CORNING #3640
# Description: Antibacterial activity against Acinetobacter baumannii ATCC 19606 (CO-ADD:GN_034); MIC in CAMBH media using NBS plates, by OD600
# HEK293 = assay: cells; format: functional, Homo sapiens, ATCC CRL1573; details: Homo sapiens, ATCC CRL1573, HEK293; ASSAY_TEST Inhibition of Cell Viability; detection method Resazurin; Fluorescence (ex560/em590); MEDIA DMEM with 10% FBS; plate type 384well; TC; CORNING #3712; time 18 hr; read-out: CC50
# Pseudomonas aeruginosa [2] = assay: microbe, parasite or virus in culture; details: ATCC 27853, 18 h, ASSAY_TEST Inhibition of Bacterial Growth, detection method Absorption (OD600), MEDIA CAMHB, plate type 384well, NBS, CORNING #3640
# Description: Antibacterial activity against Pseudomonas aeruginosa ATCC 27853 (CO-ADD:GN_042); MIC in CAMBH media using NBS plates, by OD(600)
# Description for Cryptococcus neoformans: Antifungal activity against Cryptococcus neoformans H99 ATCC 208821 (CO-ADD:FG_002); MIC in YNB media using NBS plates, by Resazurin OD(600-570)
Structure (SMILES),MIC (Pseudomonas aeruginosa [1]) [µM],MIC (Escherichia coli) [µM],MIC (Klebsiella pneumoniae) [µM],MIC (Candida albicans) [µM],MIC (Cryptococcus neoformans) [µM],MIC (Staphylococcus aureus) [µM],MIC (Acinetobacter baumannii) [µM],CC50 (HEK293) [µM],MIC (Pseudomonas aeruginosa [2]) [µM]
Nc1nc(NC2Cc3ccc(F)cc3C2)nc(N2CCCCC2)n1 (stereo unspecified),> 20,> 20,> 20,> 20,> 20,> 20,> 20,> 20,> 20
O=C(Nc1nnc(-c2ccc(Cl)cc2)o1)c1nc2ccccc2s1,> 20,> 20,> 20,> 20,> 20,> 20,> 20,> 20,> 20
Cc1ccc(S(=O)(=O)Nc2cccc3cccnc23)cc1,> 20,> 20,> 20,> 20,> 20,> 20,> 20,4.05,> 20
Oc1c(C(Nc2ccccn2)c2ccccc2)ccc2cccnc12 (stereo unspecified),> 20,> 20,> 20,20,20,> 20,> 20,19.6,> 20
COc1ccc(CNC(=O)C(NS(=O)(=O)c2ccc3nc(C)sc3c2)C(C)C)cc1 (stereo unspecified),> 20,> 20,> 20,> 20,> 20,> 20,> 20,> 20,> 20
O=[N+]([O-])c1cn(Cc2nc(O)nc(O)c2Br)cn1,> 20,> 20,> 20,> 20,> 20,> 20,> 20,> 20,> 20
Cc1ccn2c(C(=O)NCc3ccccc3)c(C)nc2c1,> 20,> 20,> 20,> 20,> 20,> 20,> 20,> 20,> 20
C[C@H](NC(CC(=O)c1ccccc1C(F)(F)F)C(=O)O)c1ccccc1 (stereo partly specified),> 20,> 20,> 20,> 20,> 20,> 20,> 20,> 20,> 20
Cc1c[nH]c(=O)nc1NCc1ccccc1,> 20,> 20,> 20,> 20,> 20,> 20,> 20,> 20,> 20
CC(C)Cn1c(=O)n(C)c(=O)c2c(-c3cncn3C)n(Cc3cccc4ccccc34)nc21,> 20,> 20,> 20,> 20,> 20,> 20,> 20,> 20,> 20
O=C(NC12CC3CC(CC(C3)C1)C2)c1cc2ccccc2[nH]1,> 20,> 20,> 20,> 20,> 20,> 20,> 20,> 20,> 20
CCCCCc1ccc(C(=O)NCCn2cc(CCCCCc3c[nH]c(N)n3)nn2)cc1,> 20,> 20,> 20,> 20,> 20,> 20,> 20,> 20,> 20
N#Cc1c(F)c(Cl)c(NCc2ccccc2)c(C#N)c1F,> 20,> 20,> 20,> 20,> 20,5,> 20,5.16,> 20
O=C(Nc1ccc(-c2ccccc2)cc1)C1=C(O)C(Cc2ccccc2)OC1=O (stereo unspecified),> 20,> 20,> 20,> 20,> 20,> 20,> 20,> 20,> 20
